For one compound, LC₅₀ results are on record in patent EP0511759A1, “Biotoxicity test for chemicals” (THE STANDARD OIL COMPANY, priority 1991, dated 1992).

In the data set the test system is Anthophysa vegetans protozoa. Kind of data set: Protozoan feeding-behaviour bioassay: turbidity (absorbance at 540 nm) of live bacterial feed remaining. In kind it is cell-based. As to the method:
The first step of the inventive process comprises adding protozoa and feed into test and control samples which contain inorganic buffers. The chemical substance whose toxic activity is being investigated is then added to the test samples but not to the control samples. The order of adding protozoa, feed and chemical substance is not critical. The amount of protozoa added is usually about at or below 1 x 10⁶ per ml. If dead bacteria are used as feed, they are added at sufficient concentrations to increase the turbidity of the medium to at least 0.3 at 540 nm in a 1.0 cm pathlength tube; this corresponds to concentration of about 2.5 x 10⁹ bacteria per ml. If live bacteria are added as feed, the inoculum level is about 0.01 to about 1% of a fully grown bacterial culture in the range of about 1 x 10⁶ to about 1 x 10⁸ bacteria per ml. […] A sample containing live bacteria is supplemented with a carbon source to support bacterial growth. The carbon sources are generally used at a final concentration of about 0.05%.
This reduction in turbidity generally takes about 1 to about 5 days. If the feed employs live bacteria, there is an initial increase in the turbidity. This increase is then followed by a decrease in turbidity in the control tubes as stated above. If the test chemical is not toxic to the protozoa, the turbidity decreases in the sample tube. If the test chemical is toxic to the protozoa, the turbidity will remain essentially unchanged. The size and volume of the resulting mixture are not critical, provided there is sufficient volume to permit either visual or spectrophotometrical observations of the change in turbidity of the microbial cultures. Typically, about 3 ml to about 5 ml samples were used.
Protozoa, Anthophysa vegetans at about 1 x 10⁵ per ml and a mixed bacteria population of soil bacteria containing but not limited to Alcaligenis and Psuedomonas at about 1 x 10⁶ per ml were inoculated into a growth medium as described above in "Culturing and Test Procedures". The bacteria multiplied in numbers and caused an initial increase in the turbidity (absorbance) of the growth medium, generally from about 0.03 to about 0.4, as measured at 540 nm in a 1.0 cm pathlength tube. After about one day of incubation, the bacterial growth ceased due to the limitation of carbon source. […] The protozoa preyed on the bacteria, leading to a reduction in bacterial cell concentration, indicated by a reduction of turbidity. This growth sequence is illustrated in Line A of Figure 2. If the bacterial cultures were grown without added protozoa, a similar increase in turbidity took place. However, there was no significant reduction in turbidity after the growth phase was completed. This is illustrated in Line B of Figure 2.
Anthophysa vegetans protozoa and live mixed population of soil bacteria containing but not limited to Psuedomonas and Alcaligenis were inoculated into a growth medium as described under "Culturing and Test Procedures". The test chemical, a phenol ethoxylate surfactant, Igepal CO 850 (GAF Chemicals Corp.), was added at different concentrations. A control without added surfactant was maintained. […] However, at about 0 and about 10 ppm surfactant, the absorbance decreased on further incubation. […] The tolerance level of the protozoa, (i.e., the concentration level at which feeding inhibition is first observed) is about 100 ppm Igepal CO 850. […] The protozoa preyed on the bacteria, resulting in reduced absorbance at 540 nm after two days incubation. […]

Turning to `O=[N+]([O-])c1ccc(O)cc1` [4-nitrophenol], the LC₅₀ (Protozoa Inocula Level 0.0001X) is reported as 0.46 ppm; the LC₅₀ (Protozoa Inocula Level 0.001X) was 5.6 ppm; the LC₅₀ (Protozoa Inocula Level 0.01X) came out at 12.5 ppm; the LC₅₀ (Protozoa Inocula Level 0.1X) is 19.5 ppm; the LC₅₀ (Protozoa Inocula Level 1.0X) was 36 ppm.
